Source: patent US20180369421A1, “METHOD FOR REDUCING THE PLACEBO EFFECT IN CLINICAL TRIALS” (priority 2017, published 2018)
Values joined by “and” are separate entries in the source; they are usually repeats but may differ in a detail not shown here. Identical values can stand only once.

Assays:
[1] = cited from earlier work
[2] = drugs.com; cited from earlier work
[3] = system: constipation in subjects not on any adjunctive medication that could cause constipation; assay: Clinical trial of two doses of a new product for the treatment of constipation in subjects not on adjunctive medication that could cause constipation, with Acebo arms (Example 3); assay type: in vivo, human; conditions: Acebo arm, twice daily
From the text: A clinical trial is being conducted to measure of the efficacy of two different doses of a new product for the treatment of constipation in subjects not on any adjunctive medication that could cause constipation. Nine hundred sixty (960) subjects are enrolled. The investigational product is supplied by the investigational treatment team. Subjects who have been on both of the potential Acebos, nortriptyline and St John's wort, will be excluded from this study.
All subjects sign an informed consent document prior to beginning the clinical research trial. They are all informed of the following: • 1. 300 of the subjects will be randomized to the new investigational medication, product Y, once daily, and the known benefits and the known and potential side effects of Product Y are disclosed. To keep the study blinded, subjects will take a pill twice a day, but one of their doses will be a placebo. • 2. 300 of the subjects will be randomized to the new investigational medication, product Y, twice daily, and the known benefits and the known and potential side effects of Product Y are disclosed. • 3. 300 of the subjects will be randomized to placebo taken twice a day. • 4. […]

[4] = system: constipation in subjects already on an opioid pain medication; assay: Clinical trial of a new product for the treatment of constipation in subjects already on an opioid pain medication, with Acebo arms (Example 2); assay type: in vivo, human; conditions: Acebo arm
From the text: A clinical trial is being conducted to measure the efficacy of a new product for the treatment of constipation in subjects already on an opioid pain medication. Nine hundred sixty (960) subjects are enrolled. All are maintained on their present pain medication regimen supplied by the clinical treatment team. The investigational product is supplied by the investigational treatment team as well. The opioid pain medication regimen continues as it was; the investigational product is taken either once or twice per day in a randomized manner.
All subjects sign an informed consent document prior to beginning the clinical research trial. They are all informed of the following: • 1. 300 of the subjects will be randomized to the new investigational medication, product Y, once daily, and the known benefits and the known potential side effects of Product Y are disclosed. To keep the study blinded, subjects will take a pill twice a day, but one of their doses will be a placebo. • 2. 300 of the subjects will be randomized to the new investigational medication, product Y, twice daily, and the known benefits and the known potential side effects of Product Y are disclosed. • 3. 300 of the subjects will be randomized to placebo taken twice a day. • 4.
5. […] Because you could receive an Acebo, you could get worse.

In the case of `Clc1cccc(Cl)c1N=C1NCCN1` [clonidine], the “depression among people who took the drug and reported side effects” value ([1]; 932 of 31,961 people reported to have side effects) is listed as ~3% and 2.92%.
For `N=C(N)NC(=O)Cc1c(Cl)cccc1Cl` [guanfacine], the “depression as side effect” value ([1]; in vivo) is listed as “does not cause depression”, the “fatigue (tiredness), share of people” value ([1]; on average) is listed as 16% and the “lethargy, share of people” value ([1]; on average) is listed as 6%. The “somnolence, share of people” value ([1]; on average) was 34%.
In the case of `CNCCC=C1c2ccccc2CCc2ccccc21` [nortriptyline], the “constipation as side effect, share of the time” value [2] is given as at least 10%, the “worsening in abdominal discomfort” value [3] is given as 1% and the worsening [4] is given as 2%.
